ChEMBL document CHEMBL4000221 (Bioorg Med Chem Lett, 2017)

Assays:
[1] = target: T1, Sodium-dependent serotonin transporter (Homo sapiens, UniProt P31645); test: Inhibition of [3H]5-HT uptake by SERT primary site (S1) (unknown origin) expressed in African green monkey COS1 cells after 10 mins by TopCount scintillation counting method; format: cell-based
[2] = target: T1, Sodium-dependent serotonin transporter
[3] = species: Homo sapiens; test: Selectivity ratio of EC50 for inhibition of [3H]-S-citalopram dissociation from SERT allosteric modulator site (S2) (unknown origin) expressed in African green monkey COS1 cell membranes to IC50 for [3H]5-HT uptake by SERT primary site (S1) (unknown origin) expressed in African green monkey COS1 cells; format: cell-based
[4] = target: T1, Sodium-dependent serotonin transporter; remark: listed apart in the source
[5] = target: T1, Sodium-dependent serotonin transporter; remark: listed apart in the source
[6] = species: Homo sapiens; test: Selectivity ratio of EC50 for inhibition of [3H]-S-citalopram dissociation from human SERT allosteric modulator site (S2) expressed in African green monkey COS7 cell membranes to IC50 for displacement of [3H]-S-citalopram from human SERT primary site (S1) expressed in African green monkey COS7 cell membranes

T1 sequence (P31645 whole entry): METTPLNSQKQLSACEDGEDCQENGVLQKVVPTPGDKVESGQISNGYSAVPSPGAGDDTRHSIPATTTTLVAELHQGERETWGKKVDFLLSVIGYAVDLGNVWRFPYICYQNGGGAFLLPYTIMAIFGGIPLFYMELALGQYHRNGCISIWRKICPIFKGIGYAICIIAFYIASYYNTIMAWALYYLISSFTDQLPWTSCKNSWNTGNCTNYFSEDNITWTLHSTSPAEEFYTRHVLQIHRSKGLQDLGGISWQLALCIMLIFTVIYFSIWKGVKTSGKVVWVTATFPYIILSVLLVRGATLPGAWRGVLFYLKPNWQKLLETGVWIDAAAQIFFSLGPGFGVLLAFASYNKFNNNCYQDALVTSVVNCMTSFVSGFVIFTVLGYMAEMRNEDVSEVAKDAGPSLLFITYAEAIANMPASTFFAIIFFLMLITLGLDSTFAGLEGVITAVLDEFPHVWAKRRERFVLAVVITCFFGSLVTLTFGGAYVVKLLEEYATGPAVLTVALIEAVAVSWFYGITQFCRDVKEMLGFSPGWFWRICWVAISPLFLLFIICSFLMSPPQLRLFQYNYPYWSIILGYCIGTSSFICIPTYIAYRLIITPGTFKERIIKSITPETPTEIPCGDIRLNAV

Structure (SMILES) | IC50 [1] [µM] | EC50 [2] [µM] | IC50 [4] [µM] | EC50 [5] [µM] | Selectivity ratio [6] | Selectivity ratio [3]
CN(C)CCCC1(c2cc(Cl)cc(Cl)c2)OCc2ccccc21 (single isomer, unassigned; enantiomer 1) [listing 1 of 2 here] | 0.35 | 8.8 |  |  |  | 
CN(C)CCCC1(c2cc(Cl)cc(Cl)c2)OCc2ccccc21 (single isomer, unassigned; enantiomer 2) [listing 1 of 2 here] |  |  |  |  |  | 67
CN(C)CCCC1(c2ccc(F)cc2)OCc2ccc3ccccc3c21 (stereo not drawn) | 0.012 | 38 |  |  |  | 3200
CN(C)CCCC1(c2cc(Cl)cc(Cl)c2)OCc2ccccc21 (single isomer, unassigned; enantiomer 1) [listing 2 of 2 here] |  |  |  |  |  | 25
CN(C)CCCC1(c2cccc3ccccc23)OCc2cc(C#N)ccc21 (stereo in doubt; 2) [listing 1 of 2 here] |  |  |  |  |  | 76
CN(C)CCCC1(c2ccc(Cl)c(Cl)c2)OCc2ccccc21 (stereo not drawn) | 0.013 | 29.6 |  |  |  | 2300
CN(C)CCCC1(c2cc(Cl)cc(Cl)c2)OCc2ccccc21 (single isomer, unassigned; enantiomer 2) [listing 2 of 2 here] | 0.3 | 20 |  |  |  | 
CN(C)CCCC1(c2ccc3ccccc3c2)OCc2cc(C#N)ccc21 (single isomer, unassigned) [listing 2 of 2 here] |  |  |  |  |  | 4100
CN(C)CCCC1(c2cc(Cl)cc(Cl)c2)OCc2ccccc21 (stereo in doubt; 4) [listing 1 of 2 here] |  |  |  |  |  | 44
CN(C)CCCC1(c2ccc(F)cc2)OCc2c1ccc1ccccc21 (stereo not drawn) | 0.004 | 31 |  |  |  | 7800
CN(C)CCCC1(c2ccc3ccccc3c2)OCc2cc(C#N)ccc21 (single isomer, unassigned; enantiomer 2) [listing 2 of 2 here] |  |  |  |  |  | 370
CN(C)CCCC1(c2cccc3ccccc23)OCc2cc(C#N)ccc21 (single isomer, unassigned; enantiomer 1) [listing 1 of 2 here] |  |  |  |  |  | 19
CN(C)CCCC1(c2cccc3ccccc23)OCc2cc(C#N)ccc21 (single isomer, unassigned; enantiomer 2) [listing 1 of 2 here] |  |  |  |  |  | 68
CN(C)CCCC1(c2ccc3ccccc3c2)OCc2cc(C#N)ccc21 (stereo in doubt; 1) [listing 2 of 2 here] |  |  |  |  |  | 2000
CN(C)CCCC1(c2cccc3ccccc23)OCc2cc(C#N)ccc21 (stereo in doubt; 2) [listing 2 of 2 here] | 0.25 | 19 |  |  |  | 
CN(C)CCCC1(c2ccc(F)cc2)OCc2cc3ccccc3cc21 (stereo not drawn) | 0.008 | 95 |  |  |  | 12000
CN(C)CCCC1(c2cccc3ccccc23)OCc2cc(C#N)ccc21 (single isomer, unassigned; enantiomer 2) [listing 2 of 2 here] | 0.28 | 19 |  |  |  | 
CN(C)CCCC1(c2cc(Cl)cc(Cl)c2)OCc2ccccc21 (stereo in doubt; 4) [listing 2 of 2 here] | 0.34 | 15 |  |  |  | 
CN(C)CCCC1(c2cccc3ccccc23)OCc2cc(C#N)ccc21 (single isomer, unassigned; enantiomer 1) [listing 2 of 2 here] | 0.74 | 14 |  |  |  | 

The next lines start with results.

IC50 [1] [µM] | EC50 [2] [µM] | IC50 [4] [µM] | EC50 [5] [µM] | Selectivity ratio [6] | Structure (SMILES) | Selectivity ratio [3]
 |  | 2.4 | 20.3 | 8.5 | CCCN(C)CCC[C@]1(c2ccc(F)cc2)OCc2cc(C#N)ccc21 | 
 |  | 0.16 | 2.9 | 18 | CCCCN(C)CCC[C@@]1(c2ccc(F)cc2)OCc2cc(C#N)ccc21 | 
0.01 | 41 |  |  |  | CN(C)CCCC1(c2ccc3ccccc3c2)OCc2cc(C#N)ccc21 (single isomer, unassigned) [listing 1 of 2 here] | 
 |  | 0.28 | 7.7 | 28 | CCN(C)CCC[C@@]1(c2ccc(F)cc2)OCc2cc(C#N)ccc21 | 
0.034 | 68 |  |  |  | CN(C)CCCC1(c2ccc3ccccc3c2)OCc2cc(C#N)ccc21 (stereo in doubt; 1) [listing 1 of 2 here] | 
0.15 | 55 |  |  |  | CN(C)CCCC1(c2ccc3ccccc3c2)OCc2cc(C#N)ccc21 (single isomer, unassigned; enantiomer 2) [listing 1 of 2 here] | 
 |  | 0.19 | 5.9 | 31 | CCCN(C)CCC[C@@]1(c2ccc(F)cc2)OCc2cc(C#N)ccc21 | 
 |  | 2.3 | 19.9 | 8.7 | CCN(C)CCC[C@]1(c2ccc(F)cc2)OCc2cc(C#N)ccc21 | 
 |  | 1.1 | 14.5 | 13 | CCCCN(C)CCC[C@]1(c2ccc(F)cc2)OCc2cc(C#N)ccc21 | 
0.0016 | 714 |  |  |  | CN(C)CCCC(=O)c1ccc2c(c1)COC2(CCCN(C)C)c1ccc(F)cc1 (stereo not drawn) | 450000
 |  | 0.075 | 1.6 | 21 | CCCCCN(C)CCC[C@@]1(c2ccc(F)cc2)OCc2cc(C#N)ccc21 | 
